Experimental data reported in patent US10988523B2, “Modified lipidated Relaxin B chain peptides and their therapeutic use” (Sanofi, priority 2018, dated 2021).
*1 amine or outer side, *2 acyl side, *3 side chain or, on linkers, in order; H or OH if unused. Where a SMILES comes first, the peptide text is derived from it. Side-chain parts run from the residue outwards. [ ]: non-standard residue; d: D form. The star is where a group is joined. X18 = CCCCCCCCCCCCCCCC(=O)N[C@@H](CCC(=O)N[C@@H](CCC(=O)N[C@@H](CCC(=O)NCCCC[C@H](NC(=O)CCC(=O)NCCCOCCOCCOCCCNC(=O)CCC(=O)NCCCOCCOCCOCCCNC(=O)CCC(=O)NCCCOCCOCCOCCCN*)C(N)=O)C(=O)O)C(=O)O)C(=O)O; αMeW = C[C@](N)(Cc1c[nH]c2ccccc12)C(=O)O; Arachidoyl = CCCCCCCCCCCCCCCCCCCC(=O)*; Arg(Me2s) = CN=C(NC)NCCC[C@H](N)C(=O)O; γGlu = O=C(O)[C@H](CCC(=O)[*:2])N[*:1]; Stearoyl = CCCCCCCCCCCCCCCCCC(=O)*; Palmitoyl = CCCCCCCCCCCCCCCC(=O)*; αMeK = C[C@](N)(CCCCN)C(=O)O; Nle = CCCC[C@H](N)C(=O)O; AEEA = NCCOCCOCC(=O)O; Aib = CC(C)(N)C(=O)O

Molecular target: T1, RXFP1 (Homo sapiens, UniProt Q9HBX9)
T1 construct: OVCAR5 cells expressing endogenous RXFP1; endogenous in cells; host or cells: OVCAR5 cells
T1 sequence (Q9HBX9 1-757): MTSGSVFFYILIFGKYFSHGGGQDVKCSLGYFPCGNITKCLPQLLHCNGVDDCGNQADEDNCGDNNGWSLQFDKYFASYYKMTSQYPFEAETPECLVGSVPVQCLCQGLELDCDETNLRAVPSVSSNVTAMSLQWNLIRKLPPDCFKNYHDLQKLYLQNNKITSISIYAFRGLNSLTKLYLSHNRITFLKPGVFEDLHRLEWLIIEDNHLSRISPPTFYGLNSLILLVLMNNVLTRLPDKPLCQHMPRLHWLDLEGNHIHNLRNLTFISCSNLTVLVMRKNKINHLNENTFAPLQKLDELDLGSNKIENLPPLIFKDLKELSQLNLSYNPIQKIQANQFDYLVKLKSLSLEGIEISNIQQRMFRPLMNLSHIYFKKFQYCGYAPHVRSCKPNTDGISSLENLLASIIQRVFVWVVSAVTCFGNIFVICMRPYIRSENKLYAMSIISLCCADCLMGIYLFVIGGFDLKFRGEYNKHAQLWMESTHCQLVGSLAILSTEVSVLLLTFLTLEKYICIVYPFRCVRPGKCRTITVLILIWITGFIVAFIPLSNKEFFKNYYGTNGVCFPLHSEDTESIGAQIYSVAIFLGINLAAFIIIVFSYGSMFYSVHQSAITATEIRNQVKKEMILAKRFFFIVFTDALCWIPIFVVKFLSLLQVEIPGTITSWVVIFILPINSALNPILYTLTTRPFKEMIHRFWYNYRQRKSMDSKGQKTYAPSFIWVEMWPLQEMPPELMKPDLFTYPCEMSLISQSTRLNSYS
Experiment: OVCAR5 cAMP assay (HTRF), RXFP1 agonist activity
Assay type: cell-based
Conditions: for Emax: OVCAR-5, maximal cAMP relative to H2-relaxin maximum (100%), read-out: EMax, OVCAR 5 cells (cAMP); for EC50: OVCAR5 cells, cAMP HTRF, read-out: EC50 (nM), OVCAR 5 cells (cAMP)
Summary of the method: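 OVCAR5 cells (endogenous RXFP1) pretreated 40 min at 37° C with 1 mM IBMX, then exposed to peptides in serum-free medium for 30 min at 37° C. Lysate cAMP read by HTRF; EC50 from variable-slope sigmoidal fit; Emax as % of H2-relaxin maximal cAMP in same run.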

Emax [%] | EC50 [nM] | Compound
100 |  | CCCCCCCCCCCCCCCC(=O)N[C@@H](CCC(=O)N[C@@H](CCC(=O)N[C@@H](CCC(=O)NCCCC[C@H](NC(=O)CCC(=O)NCCCOCCOCCOCCCNC(=O)CCC(=O)NCCCOCCOCCOCCCNC(=O)CCC(=O)NCCCOCCOCCOCCCNC(=O)[C@H](CCCCNC(C)=O)NC(=O)[C@H](C)NC(=O)[C@H](CCCNC(=N)N)NC(=O)[C@](C)(CCCCN)NC(=O)[C@H](CO)NC(=O)[C@H](Cc1ccccc1)NC(=O)[C@@H](NC(=O)[C@H](CO)NC(=O)[C@H](CCCC)NC(=O)CNC(=O)[C@H](CCC(=O)O)NC(=O)C(C)(C)NC(=O)C(C)(C)NC(=O)[C@@H](NC(=O)[C@H](CCCCNC(C)=O)NC(=O)[C@H](C)NC(=O)[C@H](CCCNC(=N)N)NC(=O)[C@@H](NC(=O)[C@H](CCCCN)NC(=O)[C@H](CCC(=O)O)NC(=O)[C@H](CCCNC(=N)N)NC(=O)CNC(=O)[C@H](CCC(=O)O)NC(=O)[C@H](CC(C)C)NC(C)=O)C(C)C)[C@@H](C)CC)[C@@H](C)O)C(N)=O)C(=O)O)C(=O)O)C(=O)O [compound 187] (Ac-LEGREKVRAK(Ac)I[Aib][Aib]EG[Nle]STFS[αMeK]RAK(Ac)-X18)
94 |  | CCCCCCCCCCCCCCCCCC(=O)N[C@@H](CCC(=O)N[C@@H](CCC(=O)N[C@@H](CCC(=O)NCCOCCOCC(=O)NCCOCCOCC(=O)NCCOCCOCC(=O)NCCCC[C@H](NC(=O)[C@H](CCCCNC(C)=O)NC(=O)[C@H](CCCCN)NC(=O)[C@H](CCCNC(=NC)NC)NC(=O)C(C)(C)NC(=O)[C@H](CO)NC(=O)[C@H](Cc1c[nH]c2ccccc12)NC(=O)[C@@H](NC(=O)[C@H](CO)NC(=O)[C@H](CCCC)NC(=O)CNC(=O)[C@H](CCC(=O)O)NC(=O)C(C)(C)NC(=O)C(C)(C)NC(=O)[C@@H](NC(=O)[C@H](CCCCNC(C)=O)NC(=O)[C@H](C)NC(=O)[C@H](CCCNC(=N)N)NC(=O)[C@@H](NC(=O)[C@H](CCCCN)NC(=O)[C@H](CCC(=O)O)NC(=O)[C@H](CCCNC(=N)N)NC(=O)CNC(=O)[C@H](CCC(=O)O)NC(=O)[C@H](CC(C)C)NC(C)=O)C(C)C)[C@@H](C)CC)[C@@H](C)O)C(N)=O)C(=O)O)C(=O)O)C(=O)O [compound 148] (Ac-LEGREKVRAK(Ac)I[Aib][Aib]EG[Nle]STWS[Aib][Arg(Me2s)]KK(Ac)K([AEEA-AEEA-AEEA-γGlu-γGlu-γGlu-Stearoyl])-NH2)
83 | 0.18 | CCCCCCCCCCCCCCCCCCCC(=O)N[C@@H](CCC(=O)N[C@@H](CCC(=O)N[C@@H](CCC(=O)NCCOCCOCC(=O)NCCOCCOCC(=O)NCCOCCOCC(=O)NCCCC[C@H](NC(=O)[C@H](CCCCNC(C)=O)NC(=O)[C@H](CCCCN)NC(=O)[C@H](CCCNC(=N)N)NC(=O)C(C)(C)NC(=O)[C@H](CO)NC(=O)[C@H](Cc1c[nH]c2ccccc12)NC(=O)[C@@H](NC(=O)[C@H](CO)NC(=O)[C@H](CCCC)NC(=O)CNC(=O)[C@H](CCC(=O)O)NC(=O)C(C)(C)NC(=O)C(C)(C)NC(=O)[C@@H](NC(=O)[C@H](CCCCNC(C)=O)NC(=O)[C@H](C)NC(=O)[C@H](CCCNC(=N)N)NC(=O)[C@@H](NC(=O)[C@H](CCCCN)NC(=O)[C@H](CCC(=O)O)NC(=O)[C@H](CCCNC(=N)N)NC(=O)CNC(=O)[C@H](CCC(=O)O)NC(=O)[C@H](CC(C)C)NC(C)=O)C(C)C)[C@@H](C)CC)[C@@H](C)O)C(N)=O)C(=O)O)C(=O)O)C(=O)O [compound 171] (Ac-LEGREKVRAK(Ac)I[Aib][Aib]EG[Nle]STWS[Aib]RKK(Ac)K([AEEA-AEEA-AEEA-γGlu-γGlu-γGlu-Arachidoyl])-NH2)
89 | 0.1 | CCCCCCCCCCCCCCCC(=O)N[C@@H](CCC(=O)N[C@@H](CCC(=O)N[C@@H](CCC(=O)N[C@@H](CCC(=O)NCCCC[C@H](NC(=O)COCCOCCNC(=O)COCCOCCNC(=O)COCCOCCNC(=O)[C@H](CCCCNC(C)=O)NC(=O)[C@H](CCCCN)NC(=O)[C@H](CCCNC(=N)N)NC(=O)[C@](C)(CCCCN)NC(=O)[C@H](CO)NC(=O)[C@](C)(Cc1c[nH]c2ccccc12)NC(=O)[C@@H](NC(=O)[C@H](CO)NC(=O)[C@H](CCCC)NC(=O)CNC(=O)[C@H](CCC(=O)O)NC(=O)C(C)(C)NC(=O)C(C)(C)NC(=O)[C@@H](NC(=O)[C@H](CCCCNC(C)=O)NC(=O)[C@H](C)NC(=O)[C@H](CCCNC(=N)N)NC(=O)[C@@H](NC(=O)[C@H](CCCCN)NC(=O)[C@H](CCC(=O)O)NC(=O)[C@H](CCCNC(=N)N)NC(=O)CNC(=O)[C@H](CCC(=O)O)NC(=O)[C@H](CC(C)C)NC(C)=O)C(C)C)[C@@H](C)CC)[C@@H](C)O)C(N)=O)C(=O)O)C(=O)O)C(=O)O)C(=O)O [compound 125] (Ac-LEGREKVRAK(Ac)I[Aib][Aib]EG[Nle]ST[αMeW]S[αMeK]RKK(Ac)[AEEA][AEEA][AEEA]K([γGlu-γGlu-γGlu-γGlu-Palmitoyl])-NH2)
